Values quoted from earlier work in patent US20130202637A1, “Dietary Supplements Including Ellagitannins and Ellagic Acid” (priority 2012, published 2013).

SMILES: O=c1oc2c(O)c(O)cc3c(=O)oc4c(O)c(O)cc1c4c23 [ellagic acid]
- G-Arrest began (cervical cancer): 72 h
- G-Arrest began (breast cancer): 72 h
